Results taken from patent US8859558B2, “Pyrazinyl carboxamides as fungicides” (Dow AgroSciences, LLC., priority 2010, dated 2014).

How the values were obtained:
[1] = test system: Mycosphaerella graminicola; anamorph: Septoria tritici (SEPTTR); test: Fungicidal activity, leaf blotch of wheat (SEPTTR), greenhouse wheat plants; format: in vivo; details: wheat (variety Yuma)
Experimental: Leaf Blotch of Wheat (Mycosphaerella graminicola; anamorph: Septoria tritici; Bayer code […]): Wheat plants (variety Yuma) were grown from seed in a greenhouse in 50% mineral soil/50% soil-less Metro mix until the first leaf was fully emerged, with 7-10 seedlings per pot. These plants were inoculated with an aqueous spore suspension of […] either prior to or after fungicide treatments. After inoculation the plants were kept in 100% relative humidity (one day in a dark dew chamber followed by two to three days in a lighted dew chamber) to permit spores to germinate and infect the leaf. The plants were then transferred to a greenhouse for disease to develop. The following table presents the activity of typical compounds of the present disclosure when evaluated in these experiments. The effectiveness of the test compounds in controlling disease was determined by assessing the severity of disease on treated plants, then converting the severity to percent control based on the level of disease on untreated, inoculated plants. • In each case of Table II the rating scale is as follows: […]

[2] = test system: Puccinia recondita f. sp. tritici (PUCCRT); test: Fungicidal activity, wheat leaf rust (PUCCRT), greenhouse wheat plants; format: in vivo; details: One-Day Protectant, wheat (variety Yuma)
[3] = test system: Cochliobolus sativus (COCHSA); test: Fungicidal activity, spot blotch of barley (COCHSA), greenhouse barley plants; format: in vivo; details: One-Day Protectant, barley (variety Harrington)
Experimental: Spot Blotch of Barley (Cochliobolus sativus: anamorph Helmithosporium sativum; Bayer code COCHSA): Barley plants (variety Harrington) were grown from seed in a greenhouse in soil-less Metro mix until the first leaf was fully emerged, with 7-10 seedlings per pot. These plants were inoculated with an aqueous spore suspension of COCHSA prior to fungicide treatments. After inoculation the plants were kept in 100% relative humidity one day to permit spores to germinate and infect the leaf. The plants were then transferred to a greenhouse for disease to develop. The following table presents the activity of typical compounds of the present disclosure when evaluated in these experiments. The effectiveness of the test compounds in controlling disease was determined by assessing the severity of disease on treated plants, then converting the severity to percent control based on the level of disease on untreated, inoculated plants. • In each case of Table II the rating scale is as follows: […]

## CC(C)C1C2CCC1c1c(NC(=O)c3nccnc3C(F)(F)F)cccc12 (centres unmarked) [Compound 9, 3-Trifluoromethyl-pyrazine-2-carboxylic acid (9-isopropyl-1,2,3,4-tetrahydro-1,4-methano-naphthalen-5-yl)-amide]
[1]; One-Day Protectant
  SEPTTR 200 PPM 1DP (disease control rating): A (76-100)
[1]; Three-Day Curative
  SEPTTR 200 PPM 3DC (disease control rating): B (51-75)
[2]
  PUCCRT 200 PPM 1DP (disease control rating): A (76-100)
[3]
  COCHSA 200 PPM 1DP (disease control rating): A (76-100)
other
  melting point: 173 to 177 °C
